Results reported in PubChem BioAssay (NCI).
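A five-concentration, 48-hour dose response in 96-well plates underlies each endpoint, interpolated linearly between surrounding concentrations. The concentration for 50% growth inhibition is given as GI50. TGI marks complete inhibition of growth.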

Experiments:
Assay in all cases: growth of human tumour cells (NCI), 48 h
786-0 renal = test system: 786-0 renal
A498 renal = test system: A498 renal
A549 NSCLC = test system: A549 NSCLC
ACHN renal = test system: ACHN renal
BT-549 breast = test system: BT-549 breast
CAKI-1 renal = test system: CAKI-1 renal
CCRF-CEM leukemia = test system: CCRF-CEM leukemia
COLO 205 colon = test system: COLO 205 colon
DU-145 prostate = test system: DU-145 prostate
EKVX NSCLC = test system: EKVX NSCLC
HCC-2998 colon = test system: HCC-2998 colon
HCT-116 colon = test system: HCT-116 colon
HCT-15 colon = test system: HCT-15 colon
HL-60(TB) leukemia = test system: HL-60(TB) leukemia
HOP-62 NSCLC = test system: HOP-62 NSCLC
HS 578T breast = test system: HS 578T breast
HT29 colon = test system: HT29 colon
IGROV1 ovarian = test system: IGROV1 ovarian
K-562 leukemia = test system: K-562 leukemia
KM12 colon = test system: KM12 colon
LOX IMVI melanoma = test system: LOX IMVI melanoma
M14 melanoma = test system: M14 melanoma
MALME-3M melanoma = test system: MALME-3M melanoma
MCF7 breast = test system: MCF7 breast
MDA-MB-231 breast = test system: MDA-MB-231 breast
MDA-MB-435 = test system: MDA-MB-435
MOLT-4 leukemia = test system: MOLT-4 leukemia
NCI-H226 lung = test system: NCI-H226 lung
NCI-H23 lung = test system: NCI-H23 lung
NCI-H460 lung = test system: NCI-H460 lung
NCI-H522 lung = test system: NCI-H522 lung
NCI/ADR-RES ovarian = test system: NCI/ADR-RES ovarian
OVCAR-3 ovarian = test system: OVCAR-3 ovarian
OVCAR-4 ovarian = test system: OVCAR-4 ovarian
OVCAR-5 ovarian = test system: OVCAR-5 ovarian
OVCAR-8 ovarian = test system: OVCAR-8 ovarian
PC-3 prostate = test system: PC-3 prostate
RPMI-8226 leukemia = test system: RPMI-8226 leukemia
RXF 393 renal = test system: RXF 393 renal
SF-268 CNS = test system: SF-268 CNS
SF-295 CNS = test system: SF-295 CNS
SF-539 CNS = test system: SF-539 CNS
SK-MEL-2 melanoma = test system: SK-MEL-2 melanoma
SK-MEL-28 melanoma = test system: SK-MEL-28 melanoma
SK-MEL-5 melanoma = test system: SK-MEL-5 melanoma
SK-OV-3 ovarian = test system: SK-OV-3 ovarian
SN12C renal = test system: SN12C renal
SNB-19 CNS = test system: SNB-19 CNS
SNB-75 CNS = test system: SNB-75 CNS
SR leukemia = test system: SR leukemia
SW-620 colon = test system: SW-620 colon
T-47D breast = test system: T-47D breast
TK-10 renal = test system: TK-10 renal
U251 CNS = test system: U251 CNS
UACC-257 melanoma = test system: UACC-257 melanoma
UACC-62 melanoma = test system: UACC-62 melanoma
UO-31 renal = test system: UO-31 renal

In the case of `FC(F)(F)c1ccc(Nc2nc(-c3c(C(F)(F)F)nc4ccccn34)cs2)cc1`, the GI50 (786-0 renal) is reported as 0.0398 µM, the TGI (786-0 renal) is reported as 2.22 µM and the GI50 (A498 renal) is reported as 0.0268 µM. The TGI (A498 renal) was 0.193 µM, the GI50 (A549 NSCLC) was 0.0625 µM and the TGI (A549 NSCLC) was 10.6 µM. For the same compound, the GI50 (ACHN renal) was 0.061 µM, the TGI (ACHN renal) was 6.83 µM and the GI50 (BT-549 breast) was 0.0564 µM. It also gave a TGI (BT-549 breast) of 4.02 µM, a GI50 (CAKI-1 renal) of 0.0419 µM and a TGI (CAKI-1 renal) of 8.2 µM. The GI50 (CCRF-CEM leukemia) was 0.0502 µM, the TGI (CCRF-CEM leukemia) was > 30.8 µM and the GI50 (COLO 205 colon) was 0.0323 µM. For the same compound, the TGI (COLO 205 colon) was 0.167 µM, the GI50 (DU-145 prostate) was 0.0402 µM and the TGI (DU-145 prostate) was 2.15 µM. For the same compound, the GI50 (EKVX NSCLC) was 0.158 µM, the TGI (EKVX NSCLC) was 7.84 µM and the GI50 (HCC-2998 colon) was 0.18 µM. The TGI (HCC-2998 colon) was 9.74 µM, the GI50 (HCT-116 colon) was 0.0426 µM and the TGI (HCT-116 colon) was 2.38 µM. For the same compound, the GI50 (HCT-15 colon) was 0.0406 µM, the TGI (HCT-15 colon) was 5.64 µM and the GI50 (HL-60(TB) leukemia) was 0.0406 µM. The TGI (HL-60(TB) leukemia) was 2.25 µM, the GI50 (HOP-62 NSCLC) was 0.0564 µM and the TGI (HOP-62 NSCLC) was 9.14 µM. It also gave a GI50 (HS 578T breast) of 0.0356 µM, a TGI (HS 578T breast) of 2.12 µM and a GI50 (HT29 colon) of 0.0364 µM. The TGI (HT29 colon) was 1.99 µM, the GI50 (IGROV1 ovarian) was 0.422 µM and the TGI (IGROV1 ovarian) was 12.1 µM. The GI50 (K-562 leukemia) was 0.0396 µM, the TGI (K-562 leukemia) was 8.18 µM and the GI50 (KM12 colon) was 0.0393 µM. For the same compound, the TGI (KM12 colon) was 4.23 µM, the GI50 (LOX IMVI melanoma) was 0.0533 µM and the TGI (LOX IMVI melanoma) was 7.95 µM. For the same compound, the GI50 (M14 melanoma) was 0.043 µM, the TGI (M14 melanoma) was 1.22 µM and the GI50 (MALME-3M melanoma) was 0.064 µM. It also gave a TGI (MALME-3M melanoma) of 4.63 µM, a GI50 (MCF7 breast) of 0.0341 µM and a TGI (MCF7 breast) of 5.43 µM. The GI50 (MDA-MB-231 breast) was 0.81 µM, the TGI (MDA-MB-231 breast) was 6.93 µM and the GI50 (MDA-MB-435) was 0.0161 µM. For the same compound, the TGI (MDA-MB-435) was 0.0473 µM, the GI50 (MOLT-4 leukemia) was 0.146 µM and the TGI (MOLT-4 leukemia) was > 28.7 µM. For the same compound, the GI50 (NCI-H226 lung) was 0.358 µM, the TGI (NCI-H226 lung) was 4.49 µM and the GI50 (NCI-H23 lung) was 0.0579 µM. It also gave a TGI (NCI-H23 lung) of 5.51 µM, a GI50 (NCI-H460 lung) of 0.0353 µM and a TGI (NCI-H460 lung) of 4.75 µM. It also gave a GI50 (NCI-H522 lung) of 0.0284 µM, a TGI (NCI-H522 lung) of 0.754 µM and a GI50 (NCI/ADR-RES ovarian) of 0.035 µM. It also gave a TGI (NCI/ADR-RES ovarian) of 2.07 µM, a GI50 (OVCAR-3 ovarian) of 0.0264 µM and a TGI (OVCAR-3 ovarian) of 0.0787 µM. It also gave a GI50 (OVCAR-4 ovarian) of 1.22 µM, a TGI (OVCAR-4 ovarian) of 15.6 µM and a GI50 (OVCAR-5 ovarian) of 0.476 µM. For the same compound, the TGI (OVCAR-5 ovarian) was 16.5 µM, the GI50 (OVCAR-8 ovarian) was 0.18 µM and the TGI (OVCAR-8 ovarian) was 7.74 µM. For the same compound, the GI50 (PC-3 prostate) was 0.0425 µM, the TGI (PC-3 prostate) was 8.54 µM and the GI50 (RPMI-8226 leukemia) was 0.0739 µM. The TGI (RPMI-8226 leukemia) was 6.01 µM, the GI50 (RXF 393 renal) was 0.0389 µM and the TGI (RXF 393 renal) was 0.316 µM. It also gave a GI50 (SF-268 CNS) of 0.0754 µM, a TGI (SF-268 CNS) of 10.7 µM and a GI50 (SF-295 CNS) of 0.033 µM. It also gave a TGI (SF-295 CNS) of 1.28 µM, a GI50 (SF-539 CNS) of 0.0383 µM and a TGI (SF-539 CNS) of 0.276 µM. The GI50 (SK-MEL-2 melanoma) was 0.0734 µM, the TGI (SK-MEL-2 melanoma) was 6.76 µM and the GI50 (SK-MEL-28 melanoma) was 1.05 µM. It also gave a TGI (SK-MEL-28 melanoma) of 16.9 µM, a GI50 (SK-MEL-5 melanoma) of 0.0358 µM and a TGI (SK-MEL-5 melanoma) of 1.49 µM. For the same compound, the GI50 (SK-OV-3 ovarian) was 0.0491 µM, the TGI (SK-OV-3 ovarian) was 5.03 µM and the GI50 (SN12C renal) was 0.297 µM. The TGI (SN12C renal) was 8.28 µM, the GI50 (SNB-19 CNS) was 0.0625 µM and the TGI (SNB-19 CNS) was 18.5 µM. It also gave a GI50 (SNB-75 CNS) of 0.0291 µM, a TGI (SNB-75 CNS) of 1.05 µM and a GI50 (SR leukemia) of 0.0402 µM. The TGI (SR leukemia) was > 39.4 µM, the GI50 (SW-620 colon) was 0.0373 µM and the TGI (SW-620 colon) was 12.3 µM. The GI50 (T-47D breast) was 0.0453 µM, the TGI (T-47D breast) was 9.07 µM and the GI50 (TK-10 renal) was 0.917 µM. The TGI (TK-10 renal) was 8.12 µM, the GI50 (U251 CNS) was 0.0764 µM and the TGI (U251 CNS) was 11 µM. The GI50 (UACC-257 melanoma) was 2.06 µM, the TGI (UACC-257 melanoma) was 8.64 µM and the GI50 (UACC-62 melanoma) was 0.0385 µM. The TGI (UACC-62 melanoma) was 3.43 µM, the GI50 (UO-31 renal) was 0.289 µM and the TGI (UO-31 renal) was 6.89 µM.
